Experimental data from patent US9682965B2, “Fumagillol heterocyclic compounds and methods of making and using same” (Zafgen, Inc., priority 2015, dated 2017).
Where a name gives a salt, the structure may show the parent alone.

These compounds were tested on Diet Induced Obese (DIO) C57BL/6 mice (assay: 10 day DIO mouse model (body weight, food intake, hematology, blood chemistry)). Details: 240 h; DIO mouse, 0.3 mpk sc, once a day for 10 days; read-out: DIO Mouse 10-day weight loss vs vehicle.
Type: in vivo
Source text: The objective of this study design was to investigate the efficacy of disclosed compounds in a 10 day DIO mouse model. Effects on body weight, food intake, hematology and blood chemistry were the primary readouts of this study design. […] Mice were fed Research Diets D12492 (60% Kcal fat, 20% Kcal carbohydrate and 20% protein) and provided water ad libitum. DIO mice were received and housed in the facility for approximately two weeks prior to the start of test article administration. On Day −4 or −3, mice were randomized into study groups based on body weight and body weights were continued to be recorded daily for the duration of the study. Daily food intake was assessed starting on Study Day −2 by weighing of the food with hopper together to avoid loss of food in transfer.
(§1) Compounds were formulated into a 100% DMSO stock (at 9 mg/mL) prior to the start, and further diluted into the target working concentration using the vehicle of 10% DMSO in water. Prior to test article administration, starting on Day −3 a dosing acclimation occured with all animals receiving a subcutaneous injection of vehicle (10% DMSO) only for 3 days. Starting on Day 1, test compounds or vehicle were administered based on individual body weight, subcutaneously, once a day for 10 days. All mice were sacrificed on Day 11, 24 hours following the final dosing on Day 10. After sacrifice, whole blood was collected and analyzed for hematology and blood chemistry parameters.
(§2) Compounds were tested vs. vehicle at various doses (1.0, 0.5, 0.3, 0.1, 0.03 mpk sc (mg per kg animal weight delivered subcutaneously), and the results are shown in Table 2 below.
`CO[C@@H]1[C@H](OC(=O)N2CC[C@H](CCN3CCOCC3)C2)CC[C@]2(CO2)[C@H]1[C@@]1(C)O[C@@H]1CC=C(C)C` [Example 54, (S)-((3R,4S,5S,6R)-5-methoxy-4-((2R,3R)-2-methyl-3-(3-methylbut-2-enyl)oxiran-2-yl)-1-oxaspiro[2.5]octan-6-yl) 3-(2-morpholinoethyl)pyrrolidine-1-carboxylate] gave an inhibition in vivo at 0.3 mg/kg of 16.4%.
`CO[C@@H]1[C@H](OC(=O)N2CC(OC(=O)N3CCOCC3)C2)CC[C@]2(CO2)[C@H]1[C@@]1(C)O[C@@H]1CC=C(C)C` [Example 71, 1-(((3R,4S,5S,6R)-5-methoxy-4-((2R,3R)-2-methyl-3-(3-methylbut-2-enyl)oxiran-2-yl)-1-oxaspiro[2.5]octan-6-yloxy)carbonyl)azetidin-3-yl morpholine-4-carboxylate formate] gave an inhibition in vivo at 0.3 mg/kg of 8.9%.
`CO[C@@H]1[C@H](OC(=O)N2CC(CCN3CCN(S(C)(=O)=O)CC3)C2)CC[C@]2(CO2)[C@H]1[C@@]1(C)O[C@@H]1CC=C(C)C` [Example 15, (3R,4S,5S,6R)-5-methoxy-4-((2R,3R)-2-methyl-3-(3-methylbut-2-enyl)oxiran-2-yl)-1-oxaspiro[2.5]octan-6-yl 3-(2-(4-(methylsulfonyl)piperazin-1-yl)ethyl)azetidine-1-carboxylate] was tested, and the inhibition in vivo at 0.3 mg/kg was 0.1%.
`CCN(CC)C[C@H]1CCN(C(=O)O[C@@H]2CC[C@]3(CO3)[C@@H]([C@@]3(C)O[C@@H]3CC=C(C)C)[C@@H]2OC)C1` [Example 38, (R)-((3R,4S,5S,6R)-5-methoxy-4-((2R,3R)-2-methyl-3-(3-methylbut-2-enyl)oxiran-2-yl)-1-oxaspiro[2.5]octan-6-yl) 3-((diethylamino)methyl)pyrrolidine-1-carboxylate formate] showed an inhibition in vivo at 0.3 mg/kg of 6.7%.
`CO[C@@H]1[C@H](OC(=O)N2CC(CCC3CCN(CC(F)F)CC3)C2)CC[C@]2(CO2)[C@H]1[C@@]1(C)O[C@@H]1CCC(C)C` [Example 128, (3R,4S,5S,6R)-4-((2R,3R)-3-isopentyl-2-methyloxiran-2-yl)-5-methoxy-1-oxaspiro[2.5]octan-6-yl 3-(2-(1-(2,2-difluoroethyl)piperidin-4-yl)ethyl)azetidine-1-carboxylate] gave an inhibition in vivo at 0.3 mg/kg of 15.2%.
Compound `CO[C@@H]1[C@H](OC(=O)N2CC(OC(=O)NC(C)C)C2)CC[C@]2(CO2)[C@H]1[C@@]1(C)O[C@@H]1CC=C(C)C` [Example 76, (3R,4S,5S,6R)-5-methoxy-4-((2R,3R)-2-methyl-3-(3-methylbut-2-enyl)oxiran-2-yl)-1-oxaspiro[2.5]octan-6-yl 3-(isopropylcarbamoyloxy)azetidine-1-carboxylate] has an inhibition in vivo at 0.3 mg/kg of 15.4%.
In the case of `CO[C@@H]1[C@H](OC(=O)N2CC(CCN3CC(C)(C#N)C3)C2)CC[C@]2(CO2)[C@H]1[C@@]1(C)O[C@@H]1CC=C(C)C` [Example 14, (3R,4S,5S,6R)-5-methoxy-4-((2R,3R)-2-methyl-3-(3-methylbut-2-enyl)oxiran-2-yl)-1-oxaspiro[2.5]octan-6-yl 3-(2-(3-cyano-3-methylazetidin-1-yl)ethyl)azetidine-1-carboxylate], the inhibition in vivo at 0.3 mg/kg is reported as 12.5%.
With `CO[C@@H]1[C@H](OC(=O)N2CC(CCN3CC[C@@H](F)C3)C2)CC[C@]2(CO2)[C@H]1[C@@]1(C)O[C@@H]1CC=C(C)C` [Example 27, (3R,4S,5S,6R)-5-methoxy-4-((2R,3R)-2-methyl-3-(3-methylbut-2-enyl)oxiran-2-yl)-1-oxaspiro[2.5]octan-6-yl 3-(2-((R)-3-fluoropyrrolidin-1-yl)ethyl)azetidine-1-carboxylate] the inhibition in vivo at 0.3 mg/kg was 13.3%.
Work on `CCN(CC)CCNC(=O)OCC1CN(C(=O)O[C@@H]2CC[C@]3(CO3)[C@@H]([C@@]3(C)O[C@@H]3CC=C(C)C)[C@@H]2OC)C1` [Example 68, (3R,4S,5S,6R)-5-methoxy-4-((2R,3R)-2-methyl-3-(3-methylbut-2-en-1-yl)oxiran-2-yl)-1-oxaspiro[2.5]octan-6-yl 3-((((2-(diethylamino)ethyl)carbamoyl)oxy)methyl)azetidine-1-carboxylate] yielded an inhibition in vivo at 0.3 mg/kg of 0%.
For `CO[C@@H]1[C@H](OC(=O)N2CC(CCC(=O)NCCN3CCOCC3)C2)CC[C@]2(CO2)[C@H]1[C@@]1(C)O[C@@H]1CC=C(C)C` [Example 67, (3R,4S,5S,6R)-5-methoxy-4-((2R,3R)-2-methyl-3-(3-methylbut-2-enyl)oxiran-2-yl)-1-oxaspiro[2.5]octan-6-yl 3-(3-(2-morpholinoethylamino)-3-oxopropyl)azetidine-1-carboxylate], the inhibition in vivo at 0.3 mg/kg was 2.8%.
In the case of `CO[C@@H]1[C@H](OC(=O)N2CC[C@H]2CN2CCCC2)CC[C@]2(CO2)[C@H]1[C@@]1(C)O[C@@H]1CC=C(C)C` [Example 41, (S)-((3R,4S,5S,6R)-5-methoxy-4-((2R,3R)-2-methyl-3-(3-methylbut-2-enyl)oxiran-2-yl)-1-oxaspiro[2.5]octan-6-yl) 2-(pyrrolidin-1-ylmethyl)azetidine-1-carboxylate formate], the inhibition in vivo at 0.3 mg/kg is reported as 4.4%.
In the case of `CO[C@@H]1[C@H](OC(=O)N2CC(CCN3CC[C@@H](O)C3)C2)CC[C@]2(CO2)[C@H]1[C@@]1(C)O[C@@H]1CC=C(C)C` [Example 47, (3R,4S,5S,6R)-5-methoxy-4-((2R,3R)-2-methyl-3-(3-methylbut-2-enyl)oxiran-2-yl)-1-oxaspiro[2.5]octan-6-yl 3-(2-((R)-3-hydroxypyrrolidin-1-yl)ethyl)azetidine-1-carboxylate], the inhibition in vivo at 0.3 mg/kg is reported as 5.6%.
In the case of `CO[C@H]1CCN(CCC2CN(C(=O)O[C@@H]3CC[C@]4(CO4)[C@@H]([C@@]4(C)O[C@@H]4CC=C(C)C)[C@@H]3OC)C2)C1` [Example 25, (3R,4S,5S,6R)-5-methoxy-4-((2R,3R)-2-methyl-3-(3-methylbut-2-enyl)oxiran-2-yl)-1-oxaspiro[2.5]octan-6-yl 3-(2-((S)-3-methoxypyrrolidin-1-yl)ethyl)azetidine-1-carboxylate], the inhibition in vivo at 0.3 mg/kg is reported as 4.8%.
Compound `CO[C@@H]1[C@H](OC(=O)N2CC(CCN3CCC(C#N)(C#N)CC3)C2)CC[C@]2(CO2)[C@H]1[C@@]1(C)O[C@@H]1CC=C(C)C` [Example 36, (3R,4S,5S,6R)-5-methoxy-4-((2R,3R)-2-methyl-3-(3-methylbut-2-enyl)oxiran-2-yl)-1-oxaspiro[2.5]octan-6-yl 3-(2-(4,4-dicyanopiperidin-1-yl)ethyl)azetidine-1-carboxylate] has an inhibition in vivo at 0.3 mg/kg of 11.2%.
`CO[C@@H]1[C@H](OC(=O)N2CC(CCN3CC(C)(C(=O)N(C)C)C3)C2)CC[C@]2(CO2)[C@H]1[C@@]1(C)O[C@@H]1CC=C(C)C` [Example 20, (3R,4S,5S,6R)-5-methoxy-4-((2R,3R)-2-methyl-3-(3-methylbut-2-enyl)oxiran-2-yl)-1-oxaspiro[2.5]octan-6-yl 3-(2-(3-(dimethylcarbamoyl)-3-methylazetidin-1-yl)ethyl)azetidine-1-carboxylate] was tested, and the inhibition in vivo at 0.3 mg/kg was 2.1%.
In the case of `CO[C@@H]1[C@H](OC(=O)N2CC(CCN3CCNC(=O)C3)C2)CC[C@]2(CO2)[C@H]1[C@@]1(C)O[C@@H]1CC=C(C)C` [Example 12, (3R,4S,5S,6R)-5-methoxy-4-((2R,3R)-2-methyl-3-(3-methylbut-2-enyl)oxiran-2-yl)-1-oxaspiro[2.5]octan-6-yl 3-(2-(3-oxopiperazin-1-yl)ethyl)azetidine-1-carboxylate], the inhibition in vivo at 0.3 mg/kg is reported as 1.1%.
For `CO[C@@H]1[C@H](OC(=O)N2CC(OC(=O)N(C)C)C2)CC[C@]2(CO2)[C@H]1[C@@]1(C)O[C@@H]1CC=C(C)C` [Example 77, (3R,4S,5S,6R)-5-methoxy-4-((2R,3R)-2-methyl-3-(3-methylbut-2-enyl)oxiran-2-yl)-1-oxaspiro[2.5]octan-6-yl 3-(dimethylcarbamoyloxy)azetidine-1-carboxylate], the inhibition in vivo at 0.3 mg/kg was 16.3%.
Work on `CO[C@@H]1[C@H](OC(=O)N2CC(OC(=O)NCC(C)(C)O)C2)CC[C@]2(CO2)[C@H]1[C@@]1(C)O[C@@H]1CC=C(C)C` [Example 82, (3R,4S,5S,6R)-5-methoxy-4-((2R,3R)-2-methyl-3-(3-methylbut-2-enyl)oxiran-2-yl)-1-oxaspiro[2.5]octan-6-yl 3-(2-hydroxy-2-methylpropylcarbamoyloxy)azetidine-1-carboxylate] yielded an inhibition in vivo at 0.3 mg/kg of -0.7%.

These compounds were tested on Male Sprague Dawley rats on high fat diet (assay: 11 day rat DIO model (body weight, food intake, hematology, blood chemistries)). Details: 264 h; DIO rat, 0.3 mpk sc, once a day for 11 days; read-out: DIO Rat 11-day weight loss vs vehicle.
Type: in vivo
Source text: The objective of this study design is to investigate the efficacy of disclosed compounds in an 11 day rat DIO model used to screen compounds for pharmacologic efficacy on endpoints related to obesity and metabolism. Effects on body weight, food intake, hematology and blood chemistries were the primary readouts of this study design. […] Rats were fed Research Diets D12451 (45% High Fat) and provided water ad libitum. Rats were received and housed in the facility for at least two or three weeks prior to start of test article administration. On Day −4 or −3, rats were randomized into study groups based on body weight and body weights were continued to be recorded daily for the duration of the study. Daily food intake was assessed starting on Study Day −2 by weighing the hopper including the food to avoid loss of food in transfer.
as §1, with “for 11” for “for 10”, “All animals” for “All mice”, “11, approximately 2” for “11, 24”, “Day 11.” for “Day 10.”
as §2
`CO[C@@H]1[C@H](OC(=O)N2CC[C@H](CCN3CCOCC3)C2)CC[C@]2(CO2)[C@H]1[C@@]1(C)O[C@@H]1CC=C(C)C` [Example 54, (S)-((3R,4S,5S,6R)-5-methoxy-4-((2R,3R)-2-methyl-3-(3-methylbut-2-enyl)oxiran-2-yl)-1-oxaspiro[2.5]octan-6-yl) 3-(2-morpholinoethyl)pyrrolidine-1-carboxylate] was tested, and the inhibition in vivo at 0.3 mg/kg was 7.3%.
For `CO[C@@H]1[C@H](OC(=O)N2CC(OC(=O)N3CCOCC3)C2)CC[C@]2(CO2)[C@H]1[C@@]1(C)O[C@@H]1CC=C(C)C` [Example 71, 1-(((3R,4S,5S,6R)-5-methoxy-4-((2R,3R)-2-methyl-3-(3-methylbut-2-enyl)oxiran-2-yl)-1-oxaspiro[2.5]octan-6-yloxy)carbonyl)azetidin-3-yl morpholine-4-carboxylate formate], the inhibition in vivo at 0.3 mg/kg was 10.3%.

Same assay, conditions: 264 h; DIO rat, 1.0 mpk sc, once a day for 11 days; read-out: DIO Rat 11-day weight loss vs vehicle
`CO[C@@H]1[C@H](OC(=O)N2CC(OC(=O)N3CCOCC3)C2)CC[C@]2(CO2)[C@H]1[C@@]1(C)O[C@@H]1CC=C(C)C` [Example 71, 1-(((3R,4S,5S,6R)-5-methoxy-4-((2R,3R)-2-methyl-3-(3-methylbut-2-enyl)oxiran-2-yl)-1-oxaspiro[2.5]octan-6-yloxy)carbonyl)azetidin-3-yl morpholine-4-carboxylate formate] showed an inhibition in vivo at 1 mg/kg of 10.3%.
